The source made the active and inactive calls. The calls are words filed in the database; no cut-off is given here.
How the values were obtained:
[1] = target: T1, Transcription factor SOX-18 (Mus musculus) (UniProt P43680); test: (§1) Competitive binding affinity to full-length mouse SOX18 expressed in Sf9 cells assessed as reduction in SOX1 8- DNA binding by measuring FP-bound fraction at 200 uM using FAM-labelled Prox1 -DNA element incubated for 5 mins in dark at room temperature, 10 mins at 37 degC and 30 mins at room temperature by fluorescence polarization assay relative to control; parameters: scale not given: the % may be the effect or the level left
T1 sequence (whole entry): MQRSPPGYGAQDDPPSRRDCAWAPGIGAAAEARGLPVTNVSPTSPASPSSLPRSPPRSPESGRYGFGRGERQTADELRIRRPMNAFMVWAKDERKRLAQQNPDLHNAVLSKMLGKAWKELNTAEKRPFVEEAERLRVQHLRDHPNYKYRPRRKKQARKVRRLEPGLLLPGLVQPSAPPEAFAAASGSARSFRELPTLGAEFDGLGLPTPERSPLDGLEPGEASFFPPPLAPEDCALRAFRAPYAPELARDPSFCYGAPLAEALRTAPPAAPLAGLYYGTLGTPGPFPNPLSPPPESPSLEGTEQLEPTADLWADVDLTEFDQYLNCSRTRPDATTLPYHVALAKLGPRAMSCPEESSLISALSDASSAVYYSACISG

[2] = target: T1, Transcription factor SOX-18 (Mus musculus); test: as §1, with “50” for “200”; parameters: scale not given: the % may be the effect or the level left
[3] = Cytotoxicity in HEK293 cells assessed as reduction in cell viability incubated for 24 hrs by Alamar blue dye based assay; settings: human
[4] = Cytotoxicity in human HepG2 cells assessed as reduction in cell viability incubated for 24 hrs by Alamar blue dye based assay
[5] = Critical micellar concentration of the compound; format: physicochemical
[6] = Cytotoxicity in African green monkey COS7 cells assessed as reduction in cell viability incubated for 24 hrs by Alamar blue dye based assay; parameters: species or system COS-7; settings: chlorocebus aethiops
[7] = target: T1, Transcription factor SOX-18 (Mus musculus); test: as §1, with “binding” for “binding by measuring FP-bound fraction at 200 uM”, “element at 1 to 1000 uM” for “element”, “assay” for “assay relative to control”
4T1.2 = test: Antitumor activity against mouse 4T1.2 cells implanted in BALB/c mouse assessed as median disease latency time at 25 mg/kg/day for 10 days (Rvb =33 days); format: functional

Structure (SMILES) | CMC [5] [µM] | CC50 at 24 h [6] [µM] | further results
CCN(CC)C(=O)c1c(CCc2ccc3ccccc3c2)cc(OC)cc1OC | – | – | Activity [1]: 107%; Activity [2]: 97.3%; CC50 at 24 h [3]: 85.8 µM; CC50 at 24 h [4]: 35.8 µM
O=C1N=C(N2CCCC2)S/C1=C/c1ccc(O)cc1O | > 1000 | > 200 | –
Cc1ccc(Cl)c(Nc2ccccc2C(=O)O)c1Cl | – | – | Activity [7]: Active
CCCCCCCCCc1cccc(O)c1C(=O)OC | 20 | – | –
COc1cc(O)c(C(=O)O)c(C=Cc2ccc3ccccc3c2)c1 (mixture of isomers) | – | – | Activity [1]: 19.8%
Cc1cc(O)c(C(=O)O)c(CCc2ccc3ccccc3c2)c1 | – | – | CC50 at 24 h [4]: 377 µM
O=C(O)c1cccnc1Nc1cccc(C(F)(F)F)c1 | – | – | Activity [7]: Active
COc1cccc(CCCCCCc2ccccc2)c1C(=O)O | > 1000 | > 200 | –
CC(=O)Oc1ccccc1C(=O)O [ASPIRIN] | – | – | Time (4T1.2): 44 days
COC(=O)c1c(O)cccc1CCc1ccc2ccccc2c1 | 20 | – | –
CCN(CC)C(=O)c1c(CCc2ccc3ccccc3c2)cccc1OC | – | – | Activity [1]: 117%; Activity [2]: 100%; CC50 at 24 h [3]: 62.6 µM; CC50 at 24 h [4]: 38.5 µM
Cc1cccc2c(=O)c3c(O)cc(O)cc3oc12 | > 1000 | > 200 | –
O=C(O)c1ccccc1Nc1cccc(C(F)(F)F)c1 | – | – | Activity [7]: Active
COC(=O)c1c(O)cccc1CCCCC(C)CCCC(C)C (stereo unspecified) | 20 | – | –
CC(C)CCCC(C)CCCCc1cccc(O)c1C(=O)O (stereo unspecified) | 30 | – | –
COc1ccc(OCC(=O)c2ccc(O)cc2O)cc1 | > 1000 | > 200 | –
CCCCCCCCCc1cccc(OC)c1C(=O)OC | 20 | – | –
O=C(O)c1c(O)cccc1COCCc1ccccc1 | – | > 200 | –
COc1cccc(C=Cc2ccc3ccccc3c2)c1C(=O)O (mixture of isomers) | – | – | CC50 at 24 h [4]: > 100 µM
O=C(COc1ccc2ccccc2c1)c1ccc(O)cc1O | > 1000 | 98.6 | –

Source: ChEMBL document CHEMBL4420080, “Inhibitors of sox18 protein activity for treating angiogenesis- and/or lymphangiogenesis-related diseases” (2018)
